# Measured values from patent publication US12344600B2, “c-Myc mRNA translation modulators and uses thereof in the treatment of cancer” (Anima Biotech Inc., priority 2022, dated 2025).
# Tested on: c-Myc
# Assay: c-Myc immunofluorescence assay
# Format: cell-based, human
# Details: A549 cells, 24 hours, anti-c-Myc immunofluorescence
# Method in brief: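 A549 NSCLC cells grown 48 h, then treated 24 h with increasing compound concentrations; fixed in 4% paraformaldehyde, stained with anti-c-Myc antibody plus fluorescent secondary and DAPI. Per-cell c-Myc fluorescence quantified by high-content imaging at 20×; dose-response fitted by logistic regression to give EC50.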
row,Compound,Myc Efficacy (−LogEC50)
1,"COc1ccc(-c2noc(N3CCC(C(=O)NCC4CCN(CC(F)(F)F)C4)CC3)n2)cc1 (centres unmarked) [Compound 343, 1-(3-(4-methoxyphenyl)-1,2,4-oxadiazol-5-yl)-N-((1-(2,2,2-trifluoroethyl)pyrrolidin-3-yl)methyl)piperidine-4-carboxamide]",+ (+ >3 and <5)
2,"C#CCCC1(CCOc2cc(-c3noc(N4CCC(C(=O)NCC5CCN(Cc6ccc(C)cc6)C5)CC4)n3)ccc2OC)N=N1 (centres unmarked) [Compound 344, 1-(3-(3-(2-(3-(but-3-yn-1-yl)-3H-diazirin-3-yl)ethoxy)-4-methoxyphenyl)-1,2,4-oxadiazol-5-yl)-N-((1-(4-methylbenzyl)pyrrolidin-3-yl)methyl)piperidine-4-carboxamide]",++ (++ ≥5 and <6)
3,"COc1ccc(-c2noc(N3CCN(C(=O)NCC4CCN(c5ccccc5)C4)CC3)n2)cc1 (centres unmarked) [Compound 345, 4-(3-(4-methoxyphenyl)-1,2,4-oxadiazol-5-yl)-N-((1-phenylpyrrolidin-3-yl)methyl)piperazine-1-carboxamide]",+ (+ >3 and <5)
4,"COc1ccc(-c2noc(N3CCC(C(=O)NC4CCN(c5ccccc5)C4)CC3)n2)cc1 (centres unmarked) [Compound 346, 1-(3-(4-methoxyphenyl)-1,2,4-oxadiazol-5-yl)-N-(1-phenylpyrrolidin-3-yl)piperidine-4-carboxamide]",++ (++ ≥5 and <6)
5,"COc1ccc(-c2noc(N3CCC(C(=O)NCC4CCN(CC5CCOC5)C4)CC3)n2)cc1 (centres unmarked) [Compound 347, 1-(3-(4-methoxyphenyl)-1,2,4-oxadiazol-5-yl)-N-((1-((tetrahydrofuran-3-yl)methyl)pyrrolidin-3-yl)methyl)piperidine-4-carboxamide]",+ (+ >3 and <5)
6,"COc1ccc(-c2noc(N3CCC(C(=O)NCC4CCN(Cc5ccncc5C)C4)CC3)n2)cc1 (centres unmarked) [Compound 348, 1-(3-(4-methoxyphenyl)-1,2,4-oxadiazol-5-yl)-N-((1-((3-methylpyridin-4-yl)methyl)pyrrolidin-3-yl)methyl)piperidine-4-carboxamide]",++ (++ ≥5 and <6)
7,"COc1ccc(-c2noc(N3CCC(C(=O)NCC4CCN(Cc5cccc(C)c5)C4)CC3)n2)cc1 (centres unmarked) [Compound 349, 1-(3-(4-methoxyphenyl)-1,2,4-oxadiazol-5-yl)-N-((1-(3-methylbenzyl)pyrrolidin-3-yl)methyl)piperidine-4-carboxamide]",++ (++ ≥5 and <6)
8,"COc1ccc(-c2noc(N3CCC(C(=O)NCC4CCN(Cc5ncccc5C)C4)CC3)n2)cc1 (centres unmarked) [Compound 350, 1-(3-(4-methoxyphenyl)-1,2,4-oxadiazol-5-yl)-N-((1-((3-methylpyridin-2-yl)methyl)pyrrolidin-3-yl)methyl)piperidine-4-carboxamide]",++ (++ ≥5 and <6)
9,"COc1ccc(-c2noc(N3CCC(C(=O)NCC4CCN(Cc5ccc(C)nc5)C4)CC3)n2)cc1 (centres unmarked) [Compound 351, 1-(3-(4-methoxyphenyl)-1,2,4-oxadiazol-5-yl)-N-((1-((6-methylpyridin-3-yl)methyl)pyrrolidin-3-yl)methyl)piperidine-4-carboxamide]",++ (++ ≥5 and <6)
10,"COc1ccc(-c2noc(N3CCC(C(=O)NCC4CCN(Cc5ccns5)C4)CC3)n2)cc1 (centres unmarked) [Compound 352, N-((1-(isothiazol-5-ylmethyl)pyrrolidin-3-yl)methyl)-1-(3-(4-methoxyphenyl)-1,2,4-oxadiazol-5-yl)piperidine-4-carboxamide]",++ (++ ≥5 and <6)
11,"COc1ccc(-c2noc(N3CCC(C(=O)NCC4CCN(CC5CCN(C)CC5)C4)CC3)n2)cc1 (centres unmarked) [Compound 353, 1-(3-(4-methoxyphenyl)-1,2,4-oxadiazol-5-yl)-N-((1-((1-methylpiperidin-4-yl)methyl)pyrrolidin-3-yl)methyl)piperidine-4-carboxamide]",++ (++ ≥5 and <6)
